In the supplement of paper PMC10307832:

Columns and labels:
Experiment in all cases: relative viability (nuclei count vs DMSO), 5 days (fraction); higher = more cells survive
CAL-12T = tested on: CAL-12T
Outline: (§1)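 One day after seeding in 1536-well plates, lung cancer cell lines were dosed by pin tool. Dosing was either single-drug or a fixed anchor-drug dose plus five library-drug doses (not always all listed) in √10 steps. After 5 days, nuclei were stained in one fix-and-stain step and counted on 4× images, and relative viability is the nuclei count of treated wells over that of vehicle wells, given as the median of duplicate plates.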

ChaGo-K-1 = tested on: ChaGo-K-1
Outline: as §1

HCC-366 = tested on: HCC-366
Outline: as §1

HCC-78 = tested on: HCC-78
Outline: as §1

LC-2-ad = tested on: LC-2-ad
Outline: as §1

LOU-NH91 = tested on: LOU-NH91
Outline: as §1

LU99A = tested on: LU99A
Outline: as §1

NCI-H1395 = tested on: NCI-H1395
Outline: as §1

NCI-H1651 = tested on: NCI-H1651
Outline: as §1

NCI-H1734 = tested on: NCI-H1734
Outline: as §1

NCI-H1755 = tested on: NCI-H1755
Outline: as §1

NCI-H1793 = tested on: NCI-H1793
Outline: as §1

NCI-H1944 = tested on: NCI-H1944
Outline: as §1

NCI-H2087 = tested on: NCI-H2087
Outline: as §1

NCI-H2170 = tested on: NCI-H2170
Outline: as §1

NCI-H2228 = tested on: NCI-H2228
Outline: as §1

NCI-H2405 = tested on: NCI-H2405
Outline: as §1

NCI-H3122 = tested on: NCI-H3122
Outline: as §1

NCI-H460 = tested on: NCI-H460
Outline: as §1

PC-3 [JPC-3] = tested on: PC-3 [JPC-3]
Outline: as §1

RERF-LC-KJ = tested on: RERF-LC-KJ
Outline: as §1

UMC-11 = tested on: UMC-11
Outline: as §1

CC1(C)CCC(c2ccc(Cl)cc2)=C(CN2CCN(c3ccc(C(=O)NS(=O)(=O)c4ccc(N[C@H](CCN5CCOCC5)CSc5ccccc5)c(S(=O)(=O)C(F)(F)F)c4)cc3)CC2)C1 [Navitoclax] + CC(=O)Nc1cccc(-n2c(=O)n(C3CC3)c(=O)c3c(Nc4ccc(I)cc4F)n(C)c(=O)c(C)c32)c1 [Trametinib] (partner 0.02 µM)
relative viability (CAL-12T; first compound 0.005 µM): 0.348
relative viability (CAL-12T; first compound 0.01581 µM): 0.373
relative viability (CAL-12T; first compound 0.05 µM): 0.351
relative viability (CAL-12T; first compound 0.1581 µM): 0.331
relative viability (CAL-12T; first compound 0.5 µM): 0.311
relative viability (ChaGo-K-1; first compound 0.005 µM): 0.812
relative viability (ChaGo-K-1; first compound 0.01581 µM): 0.859
relative viability (ChaGo-K-1; first compound 0.05 µM): 0.451
relative viability (ChaGo-K-1; first compound 0.1581 µM): 0.904
relative viability (ChaGo-K-1; first compound 0.5 µM): 0.837
relative viability (HCC-366; first compound 0.005 µM): 0.319
relative viability (HCC-366; first compound 0.01581 µM): 0.419
relative viability (HCC-366; first compound 0.1581 µM): 0.351
relative viability (HCC-366; first compound 0.5 µM): 0.288
relative viability (HCC-78; first compound 0.005 µM): 0.653
relative viability (HCC-78; first compound 0.01581 µM): 0.826
relative viability (HCC-78; first compound 0.05 µM): 0.59
relative viability (HCC-78; first compound 0.1581 µM): 0.727
relative viability (HCC-78; first compound 0.5 µM): 0.727
relative viability (LC-2-ad; first compound 0.005 µM): 0.861
relative viability (LC-2-ad; first compound 0.01581 µM): 0.906
relative viability (LC-2-ad; first compound 0.05 µM): 0.813
relative viability (LC-2-ad; first compound 0.1581 µM): 0.902
relative viability (LC-2-ad; first compound 0.5 µM): 0.823
relative viability (LOU-NH91; first compound 0.005 µM): 0.776
relative viability (LOU-NH91; first compound 0.01581 µM): 0.829
relative viability (LOU-NH91; first compound 0.05 µM): 0.607
relative viability (LOU-NH91; first compound 0.1581 µM): 0.685
relative viability (LOU-NH91; first compound 0.5 µM): 0.33
relative viability (LU99A; first compound 0.005 µM): 0.527
relative viability (LU99A; first compound 0.01581 µM): 0.597
relative viability (LU99A; first compound 0.1581 µM): 0.572
relative viability (LU99A; first compound 0.5 µM): 0.674
relative viability (NCI-H1395; first compound 0.005 µM): 1.03
relative viability (NCI-H1395; first compound 0.01581 µM): 1.17
relative viability (NCI-H1395; first compound 0.05 µM): 1.01
relative viability (NCI-H1395; first compound 0.1581 µM): 1.13
relative viability (NCI-H1395; first compound 0.5 µM): 1.04
relative viability (NCI-H1651; first compound 0.005 µM): 0.822
relative viability (NCI-H1651; first compound 0.01581 µM): 0.921
relative viability (NCI-H1651; first compound 0.05 µM): 0.61
relative viability (NCI-H1651; first compound 0.1581 µM): 0.771
relative viability (NCI-H1651; first compound 0.5 µM): 0.864
relative viability (NCI-H1734; first compound 0.005 µM): 0.644
relative viability (NCI-H1734; first compound 0.01581 µM): 0.776
relative viability (NCI-H1734; first compound 0.1581 µM): 0.625
relative viability (NCI-H1734; first compound 0.5 µM): 0.646
relative viability (NCI-H1755; first compound 0.005 µM): 0.743
relative viability (NCI-H1755; first compound 0.01581 µM): 0.774
relative viability (NCI-H1755; first compound 0.05 µM): 0.662
relative viability (NCI-H1755; first compound 0.1581 µM): 0.764
relative viability (NCI-H1755; first compound 0.5 µM): 0.802
relative viability (NCI-H1793; first compound 0.005 µM): 0.373
relative viability (NCI-H1793; first compound 0.01581 µM): 0.439
relative viability (NCI-H1793; first compound 0.1581 µM): 0.467
relative viability (NCI-H1793; first compound 0.5 µM): 0.402
relative viability (NCI-H1944; first compound 0.005 µM): 0.414
relative viability (NCI-H1944; first compound 0.01581 µM): 0.407
relative viability (NCI-H1944; first compound 0.1581 µM): 0.422
relative viability (NCI-H1944; first compound 0.5 µM): 0.373
relative viability (NCI-H2087; first compound 0.005 µM): 0.177
relative viability (NCI-H2087; first compound 0.01581 µM): 0.194
relative viability (NCI-H2087; first compound 0.1581 µM): 0.145
relative viability (NCI-H2087; first compound 0.5 µM): 0.151
relative viability (NCI-H2170; first compound 0.005 µM): 0.926
relative viability (NCI-H2170; first compound 0.01581 µM): 0.984
relative viability (NCI-H2170; first compound 0.05 µM): 0.892
relative viability (NCI-H2170; first compound 0.1581 µM): 0.887
relative viability (NCI-H2170; first compound 0.5 µM): 0.874
relative viability (NCI-H2228; first compound 0.005 µM): 0.476
relative viability (NCI-H2228; first compound 0.01581 µM): 0.802
relative viability (NCI-H2228; first compound 0.1581 µM): 0.511
relative viability (NCI-H2228; first compound 0.5 µM): 0.491
relative viability (NCI-H2405; first compound 0.005 µM): 0.535
relative viability (NCI-H2405; first compound 0.01581 µM): 0.75
relative viability (NCI-H2405; first compound 0.05 µM): 0.67
relative viability (NCI-H2405; first compound 0.1581 µM): 0.596
relative viability (NCI-H2405; first compound 0.5 µM): 0.661
relative viability (NCI-H3122; first compound 0.005 µM): 0.243
relative viability (NCI-H3122; first compound 0.01581 µM): 0.221
relative viability (NCI-H3122; first compound 0.05 µM): 0.217
relative viability (NCI-H3122; first compound 0.1581 µM): 0.222
relative viability (NCI-H3122; first compound 0.5 µM): 0.211
relative viability (NCI-H460; first compound 0.005 µM): 0.135
relative viability (NCI-H460; first compound 0.01581 µM): 0.237
relative viability (NCI-H460; first compound 0.05 µM): 0.153
relative viability (NCI-H460; first compound 0.1581 µM): 0.188
relative viability (NCI-H460; first compound 0.5 µM): 0.215
relative viability (PC-3 [JPC-3]; first compound 0.005 µM): 0.674
relative viability (PC-3 [JPC-3]; first compound 0.01581 µM): 0.714
relative viability (PC-3 [JPC-3]; first compound 0.05 µM): 0.734
relative viability (PC-3 [JPC-3]; first compound 0.1581 µM): 0.668
relative viability (PC-3 [JPC-3]; first compound 0.5 µM): 0.603
relative viability (RERF-LC-KJ; first compound 0.005 µM): 0.823
relative viability (RERF-LC-KJ; first compound 0.01581 µM): 0.847
relative viability (RERF-LC-KJ; first compound 0.05 µM): 0.969
relative viability (RERF-LC-KJ; first compound 0.1581 µM): 0.938
relative viability (RERF-LC-KJ; first compound 0.5 µM): 0.985
relative viability (UMC-11; first compound 0.005 µM): 0.658
relative viability (UMC-11; first compound 0.01581 µM): 0.703
relative viability (UMC-11; first compound 0.05 µM): 0.483
relative viability (UMC-11; first compound 0.1581 µM): 0.574
relative viability (UMC-11; first compound 0.5 µM): 0.321
